Test results from patent US10961507B2, “Method for producing hepatic stem/precursor cells from mature hepatic cells using low-molecular-weight compound” (Cynity Co., Ltd., priority 2016, dated 2021).

Test system: CYP1A in Hep-i(+) cells
Assay: Determination of CYP1A activity and CYP1A1/CYP1A2 gene expression after 3-MC treatment
Format: cell-based, rat
Conditions: 5 μM for 4 days
Protocol: In order to induce CYP1A activity, cells on Day 8 of hepatocyte induction were treated with 5 μM 3-methylcholanthrene (3-MC) (Sigma) for 4 days (the medium was exchanged on the second day). The control cells were treated only with DMSO as a solvent. Four days later, P450-G1o CYP1A1 Assay (Luciferin-CEE) was used to determine CYP1A activity. According to the manufacturer's instruction, this kit can detect CYP1A2 activity more efficiently than CYP1A1 activity. Following CYP1A activity, the DNA content of the cells was measured to normalize the CYP activity. In order to examine the responsiveness to 3-MC, fold changes in activity were calculated as [mean luminescence in the presence of 3-MC/mean luminescence in the absence of 3-MC] for 3 wells/condition in each experiment to determine an average value for five independent experiments. In two experiments, total RNA was isolated to assess the gene expression levels of CYP1A1 and CTP1A2.

## Cc1ccc2cc3c(ccc4ccccc43)c3c2c1CC3 [3-MC, 3-methylcholanthrene]
  CYP1A1 and CYP1A2 gene expressions in response to stimulation: efficiently induced
  CYP1A activity in response to stimulation: efficiently induced
